Reference: PMC6920499, “Sustainability potentials of novel laccase tinctures from Stenotrophomonas maltophilia BIJ16 and Bordetella bronchiseptica HSO16: From dye decolourization to denim bioscouring” (Biotechnology Reports, 2019)

What was measured:
[1] = system: T1, Bordetella sp. HSO16 laccase (Hb16c laccase); assay: ABTS oxidation at […] nm, Lineweaver-Burk; type: biochemical; conditions: crude laccase; standard assay potassium phosphate pH 6, 30 °C
T1 construct: gene cueO; crude culture supernatant, native secreted laccase, not purified; several laccase-like genes inferred by PCR
Excerpt: HSO16 laccase (Hb16c laccase)

[2] = system: T2, Stenotrophomonas sp. BIJ16 laccase (Berl1^1b2 laccase); assay: ABTS oxidation at […] nm, Lineweaver-Burk; type: biochemical; conditions: crude laccase; standard assay potassium phosphate pH 6, 30 °C
T2 construct: gene MCOStm; crude culture supernatant, native secreted laccase, not purified; several laccase-like genes inferred by PCR
Excerpt: BIJ16 laccase (Berl1^1b2 laccase)

`CCn1c(=NN=c2sc3cc(S(=O)(=O)O)ccc3n2CC)sc2cc(S(=O)(=O)O)ccc21` [ABTS, 2,2’-azino-bis (3-ethylbenzothiazoline-6-sulfonic acid)] gave a Km [1] of 1.09 µM and a Km [2] of 0.636 µM.
